{"source": "patent US9999656B2", "about": "“Treatment of short bowel syndrome patients with colon-in-continuity” (Shire-NPS Pharmaceuticals, Inc., priority 2004, dated 2018)", "origin": "cited, not measured here", "key": {"[1]": {"conditions": "GLP-2; approximately; cited from earlier work"}, "SBS jejunostomy patients": {"test_system": "SBS jejunostomy patients", "conditions": "cited from earlier work"}}}
{"substance": "glucagon-like peptide-2 [native GLP-2]", "values": [{"measurement": "half-life", "setting": "[1]", "result": "approximately seven"}, {"measurement": "effect on wet weight absorption", "setting": "SBS jejunostomy patients; native GLP-2 400 μg twice daily for 35 days, p=0.040", "result": "420 ± 480", "unit": "g/day"}, {"measurement": "intestinal wet weight absorption (in words)", "setting": "SBS jejunostomy patients; open-label study, pharmacologic doses, SBS jejunostomy patients (Jeppesen et al.)", "result": "significant improvement in intestinal wet weight absorption"}]}
